Source: patent US7901893B2, “NPC1L1 (NPC3) and methods of identifying ligands thereof” (Merck Sharp & Dohme Corp., priority 2004, dated 2011)
pKi: −log10 of the molar value.

Assays:
human NPC1L1 = biological target: T1, human NPC1L1 (Homo sapiens, UniProt Q9UHC9, G1187D/M616T/T1073A); test: Binding to membranes of HEK-293 cells expressing recombinant human NPC1L1; parameters: expressed in transfected cells; host or cells: HEK-293 cells (ATCC), transient, pCR3.1; membranes; details: 0.03% sodium taurocholate and 0.05% digitonin; 1.25 mg protein/ml, 100 nM 1
T1 sequence (Q9UHC9 22-1332 isoform Q9UHC9-2 M616T/T1046A/G1160D limits assumed): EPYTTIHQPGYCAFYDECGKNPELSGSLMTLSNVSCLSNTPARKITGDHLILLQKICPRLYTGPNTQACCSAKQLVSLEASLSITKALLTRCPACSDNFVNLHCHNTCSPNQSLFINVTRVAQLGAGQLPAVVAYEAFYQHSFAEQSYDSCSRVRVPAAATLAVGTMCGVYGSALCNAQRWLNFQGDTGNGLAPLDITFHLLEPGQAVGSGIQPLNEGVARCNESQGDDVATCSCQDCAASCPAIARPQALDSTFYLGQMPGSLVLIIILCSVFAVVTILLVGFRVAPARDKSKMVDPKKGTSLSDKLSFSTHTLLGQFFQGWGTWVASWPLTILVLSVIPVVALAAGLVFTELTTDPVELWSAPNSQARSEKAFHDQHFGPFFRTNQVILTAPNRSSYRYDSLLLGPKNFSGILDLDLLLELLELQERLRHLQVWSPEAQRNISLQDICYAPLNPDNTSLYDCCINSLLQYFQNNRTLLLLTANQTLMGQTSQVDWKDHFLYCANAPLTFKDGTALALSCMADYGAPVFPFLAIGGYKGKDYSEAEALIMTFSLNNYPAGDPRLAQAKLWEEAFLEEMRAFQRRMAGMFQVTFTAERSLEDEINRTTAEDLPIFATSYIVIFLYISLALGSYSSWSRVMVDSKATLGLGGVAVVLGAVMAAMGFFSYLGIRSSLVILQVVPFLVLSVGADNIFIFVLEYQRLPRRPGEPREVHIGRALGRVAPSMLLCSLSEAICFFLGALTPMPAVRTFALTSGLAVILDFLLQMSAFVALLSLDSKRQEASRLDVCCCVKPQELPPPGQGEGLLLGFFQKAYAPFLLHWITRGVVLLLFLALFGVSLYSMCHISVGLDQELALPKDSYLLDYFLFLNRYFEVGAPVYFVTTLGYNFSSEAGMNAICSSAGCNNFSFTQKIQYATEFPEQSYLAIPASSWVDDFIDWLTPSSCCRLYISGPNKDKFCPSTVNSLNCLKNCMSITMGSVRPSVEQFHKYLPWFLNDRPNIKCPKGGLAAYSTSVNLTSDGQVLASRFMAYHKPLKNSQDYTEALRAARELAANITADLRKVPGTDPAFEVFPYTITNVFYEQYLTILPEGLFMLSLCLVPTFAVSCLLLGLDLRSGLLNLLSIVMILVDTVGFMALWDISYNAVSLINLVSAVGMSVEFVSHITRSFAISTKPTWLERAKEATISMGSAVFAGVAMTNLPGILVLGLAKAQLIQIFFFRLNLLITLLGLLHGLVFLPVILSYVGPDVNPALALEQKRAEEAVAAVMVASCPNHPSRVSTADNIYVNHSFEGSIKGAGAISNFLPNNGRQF
Description: (§1) Transient expression of NPC1L1. Plasmid pCR3.1 expressing rat NPC1L1 (Genbank AY437867) or human NPC1L1 (Genbank AY437865) were prepared using standard molecular biology protocols. HEK-293 cells (ATCC) were seeded at 10×10^6 cells per T-225 flask (Corning) in DMEM containing 10% fetal calf serum, 4.5 g/L D-glucose and L-glutamine, 18 hours prior to transfection. They were transiently transfected with 25 μg of DNA using Fugene transfection reagent (Roche Biochemical) at a ratio of 6:1 Fugene:DNA. Following transfection, the cells were incubated at 37° C. and 5% CO2 for 48 hours, and then harvested using PBS based cell dissociation buffer (Gibco), pelleted at 500×g, snap frozen on dry ice, and stored at −80° C.
(§2) Membrane preparation from HEK-293 cells. Membranes were prepared by resuspending the frozen cell pellets in ten volumes of 20 mM HEPES/Tris buffer at pH 7.40 containing 8% sucrose, and sonicating the suspensions with a probe sonicator on ice until most of the cells were lysed. To isolate the membranes, the sonicates were centrifuged at 1600×g for 10 min to remove cell debris, and then the supernatants were centrifuged at 125,000×g for 1 hour to recover the membranes. These membranes were resuspended in 20 mM HEPES/Tris buffer at pH 7.40 containing 160 mM NaCl and 5% glycerol, and stored at 10-20 mg/ml protein at −80° C.
(§3) Analog structures are defined in Table 12.

rat NPC1L1 = rat NPC1L1 (Rattus norvegicus, UniProt Q6T3U3); test: Binding to membranes of HEK-293 cells expressing recombinant rat NPC1L1; parameters: expressed in transfected cells; host or cells: HEK-293 cells (ATCC), transient, pCR3.1; membranes; details: 0.03% sodium taurocholate and 0.05% digitonin; 1.25 mg protein/ml, 100 nM 1
Description: as §1, §2, §3

Row | pKi (human NPC1L1) | pKi (rat NPC1L1) | SMILES
1 | 5.89 | 5.77 | O=C(O)[C@H]1O[C@@H](Oc2ccc([C@@H]3[C@@H](CC[C@@H](O)c4ccc(F)cc4)C(=O)N3c3ccc(F)cc3)cc2)[C@H](O)[C@@H](O)[C@@H]1O [Compound 5]
2 | 6.00 | 6.09 | O=C(O)[C@H]1O[C@@H](Oc2ccc([C@@H]3[C@@H](CCCc4ccc(F)cc4)C(=O)N3c3ccc(F)cc3)cc2)[C@H](O)[C@@H](O)[C@@H]1O [Compound 3]
3 | 3.89 | 4.13 | O=C(O)C1OC(Oc2ccc(C3C(CCC(O)c4ccc(F)cc4)C(=O)N3c3ccc(F)cc3)cc2)C(O)C(O)C1O (single isomer, unassigned) [Compound 4]
4 | 4.85 | 4.64 | O=C(CC[C@H]1C(=O)N(c2ccc(F)cc2)[C@@H]1c1ccc(O[C@@H]2O[C@H](C(=O)O)[C@@H](O)[C@H](O)[C@H]2O)cc1)c1ccc(F)cc1 [Compound 6]

Row | SMILES | pKi (human NPC1L1) | pKi (rat NPC1L1)
5 | O=C(O)[C@H]1O[C@@H](Oc2ccc([C@@H]3[C@@H](CC[C@H](O)c4ccc(F)cc4)C(=O)N3c3ccc(F)cc3)cc2)[C@H](O)[C@@H](O)[C@@H]1O [Compound 1, Ezetimibe glucuronide] | 6.66 | 6.68
